In brackets after ≈: the same amount, converted by molar mass.
What was measured:
LB tumor cells = experiment: In vitro LB tumor cell proliferation ([3H]-thymidine uptake); format: cell-based, mice; settings: for IC50: Mus musculus, substance alone, read-out: GIU50/mL on in vitro LB tumor cell proliferation; for reversibility of the inhibitory effect: after 18 hours of culture, old medium replaced by fresh medium
Procedure: Each point (percentage of cpm incorporated by LB cells as compared with the control) represents the mean±SE of 3 experiments. Significance versus control, meta-tyrosine and peak 2: P<0.001 at >2.75 μg/mL; peak 2: P<0.05 at 2.75 μg/mL. ortho-tyrosine P<0.001 at 500 to 125 μg/mL; P<0.002 at 30 μg/mL. Peak 3: P<0.002 and P<0.01, at 31 and 15.5 μg/mL, respectively. Rescue of in vitro LB tumor inhibition mediated by meta-tyrosine (150 μg/mL)(B) or ortho-tyrosine (150 μg/mL) (C) by co-culturing with 150 μg/mL of individual protein amino acids. Each value represents the mean±SE of 8 to 18 determinations for (B) and 4 to 9 determinations for (C). a, P<0.01; c, P<0.001 versus meta- or ortho-tyrosine. Data with saline was similar to data obtained with each amino acid alone.
Fractionation of serum from mice bearing a subcutaneous LB tumor (size≧2,000 mm^3) was carried out through several steps of purification (FIG. 1). Serum from normal mice was similarly fractioned as control. At all stages of the purification, the presence of the inhibitory factor was monitored by the [^3H]-thymidine uptake assay as a measure of LB tumor cell proliferation. First, serum was decomplemented and subjected to dialysis. The inhibitory factor was recovered only in the dialyzable fraction (MW<12,500 Da) and was then concentrated by lyophilization and applied successively to Sephadex G-25 and G-15 chromatographic columns, where activity was recovered at fractions corresponding to a molecular weight below 1,000 Da. These fractions were lyophilized and further purified with an HPLC column C18 in a gradient of acetonitrile in TFA (first HPLC). In 12 similar and independent experiments, growth inhibitory activity was systematically recovered in only 1 fraction eluted at near 20% acetonitrile (FIG. 2).
To test directly whether a “cocktail” of amino acids similar to that detected close to the “primary site” was more counteracting of the antitumor effects produced by m- and o-tyrosine than a “secondary site cocktail,” different concentrations of a mixture of m-tyrosine and o-tyrosine (ratio 1:1) were assayed on LB tumor cell proliferation, alone or together with a primary or a secondary site cocktail of amino acids.

CEI tumor cells = experiment: In vitro proliferation of CEI tumor cells; format: cell-based; settings: dose-dependent, not shown
C7HI tumor cells = experiment: In vitro proliferation of C7HI tumor cells; format: cell-based; settings: dose-dependent, not shown
ERK1 and ERK2 = experiment: Western blot of p-ERK 1/2 in LB tumor cells; format: cell-based, mice; settings: LB cells cultured 3 minutes with m-tyrosine (250 μg/mL)
Procedure: (§1) FIG. 8 illustrates the effect of meta-tyrosine on the expression of phosphorylated (p)-Erk 1/2 and p-STAT3 in LB tumor cells using Western blot: 3×10^5 LB tumor cells in 0.1 mL of medium were cultured in the presence of 0.1 mL of meta-tyrosine (m-Tyr; 250 μg/mL), phenylalanine (Phe, 250 μg/mL), meta-tyrosine (250 μg/mL)+phenylalanine (250 μg/mL), or saline for 3 minutes (to measure p-ERK 1/2) or for 8 hours (to measure p-STAT3). Positive control was obtained by treating LB cells with pervanadate. Controls with acting, total ERK 1/2, and total STAT3 were also added. FIG. 8A illustrates a representative experiment showing p-ERK 1/2 expression. FIG. 8B is a histogram showing the mean of 5 experiments; a, P<0.01 versus saline and versus meta-tyrosine+phenylalanine; P<0.02 versus phenylalanine. FIG. 8C illustrates a representative experiment showing p-STAT3 expression. […]
(§2) On this basis, we analyzed, first, the effect of m-tyrosine on ERK1 and ERK2 as 2 examples of protein kinases that are activated by the mitogen activated protein/extracellular signal-regulated kinase (MAP/ERK) signal transduction pathway that normally couples intracellular responses associated with cell proliferation, to the binding of growth factors to cell surface receptors (Kohno M, and Pouyssegur J. 2006. Targeting the ERK signaling pathway in cancer therapy. Ann Med; 38:200-211). […]

STAT3 = experiment: Western blot of p-STAT3 in LB tumor cells; format: cell-based, mice; settings: LB cells cultured 8 hours with m-tyrosine (250 μg/mL)
Procedure: as §1, §2

[1] = Evaluation of toxicity of the tyrosine isomers; format: in vivo, mice; settings: for health of mice after three weeks of treatment / hematologic populations of the blood or the spleen / histological alterations in analyzed tissues / anti-RRC antibody levels: higher dose; for histological alterations in analyzed tissues: three weeks of treatment; for anti-RRC antibody levels: tumor bearing mice and normal mice
Procedure: The effect of meta-tyrosine and ortho-tyrosine on the immune response triggered by a conventional antigen was evaluated. Ram red cells (RRC) were used.

LB tumor = experiment: In vivo growth of s.c. LB tumor implants (primary, secondary under CR, established, ascitic); set-up: species or system mice; settings: for inhibition of tumor cells in euthymic versus nude mice: mouse, in vivo

SMILES	IC50 (LB tumor cells) [µg/mL]	reversibility of the inhibitory effect (LB tumor cells)	inhibitory effect of m-tyrosine relative to o-tyrosine (LB tumor cells; in vitro LB tumor cell proliferation)	in vitro proliferation of CEI tumor cells (CEI tumor cells)	in vitro proliferation of C7HI tumor cells (C7HI tumor cells)	activation of ERK1 and ERK2 (p-ERK 1/2 expression) (ERK1 and ERK2)	activation of STAT3 (p-STAT3 expression) (STAT3)	toxic side effects in tumor-bearing mice ([1]; during treatment of MC-C, CEI and C7HI tumors)	health of mice after three weeks of treatment [1]	hematologic populations of the blood or the spleen [1]	histological alterations in analyzed tissues [1]	anti-RRC antibody levels [1]	inhibition of tumor cells in euthymic versus nude mice (LB tumor)	effect on ascitic LB tumor cells (LB tumor; not shown)
NC(Cc1cccc(O)c1)C(=O)O (centres unmarked) [meta-tyrosine, 3-hydroxyphenylalanine]	4.5 ± 0.9 (≈ 24.8 µM)	reversible	about 10 times	inhibited	inhibited	significantly reduced	significantly reduced	without exhibiting toxic side effects	remained in good health	did not affect	no histological alterations	does not affect	Identical inhibition	inhibitory
NC(Cc1ccccc1O)C(=O)O (centres unmarked) [ortho-tyrosine, 2-hydroxyphenylalanine]	46.7 ± 5.2 (≈ 258 µM)	reversible	–	inhibited	inhibited	–	–	–	remained in good health	did not affect	no histological alterations	does not affect	Identical inhibition	–
